The record followed here is patent US5006527A, “Pharmacologically active N-(4-piperidinyl) bicyclic condensed 2-imidazolamine derivatives” (Janssen Pharmaceutica N.V., priority 1989, dated 1991).

This assay deals with compound 48/80-induced lethality. In words: Protection of rats from compound 48/80-induced lethality. Conditions: Rattus norvegicus; test compound subcutaneously or orally (route not specified per compound); compound 48/80 0.5 mg/kg i.v. one hour after treatment; survival after 4 hours; protection of 50% of animals; read-out: compound 48/80 lethality test in rate-ED50. The format is in vivo, rat (male, inbred Wistar strain). How it is done: Protection of rats from compound 48/80-induced lethality
The protection from compound 48/80-induced lethal circulatory collapse appears to be a simple way of evaluating quantitatively the antihistaminic activity of test compounds. Male rats of an inbred Wistar strain, weighting 240-260 g were used in the experiment. After overnight starvation the rats were transferred to conditioned laboratories (temp. =21±1° C., relative humidity =65±5%).
The rats were treated subcutaneously or orally with a test compound or with the solvent (NaCl solution, 0.9%). One hour after treatment there was injected intravenously compound 48/80, freshly dissolved in water, at a dose of 0.5 mg/kg (0.2 ml/100 g of body weight). In control experiments, wherein 250 solvent-treated animals were injected with the standard dose of compound 48/80, not more than 2.8% of the animals survived after 4 hours. Survival after 4 hours is therefore considered to be a safe criterion of a protective effect of drug administration. Said ED50 -values are the values in mg/kg body weight at which the tested compounds protect 50% of the tested animals against compound 48/80-inducedlethality.
With `Cc1ccc(Cn2c(NC3CCN(C)CC3)nc3cccnc32)o1` [Compound 1], the ED50 is 0.005 mg/kg. To `CCN1CCC(Nc2nc3cccnc3n2Cc2ccc(C)o2)CC1.O=C(O)/C=C/C(=O)O.O=C(O)/C=C/C(=O)O` [Compound 4, N-(1-ethyl-4-piperidinyl)-3-[(5-methyl-2-furanyl)methyl]-3H-imidazo[4,5-b]-pyridin-2-amine (E)-2-butenedioate(1:2)] belongs 0.0025 mg/kg; to `C=CCN1CCC(Nc2nc3cccnc3n2Cc2ccc(C)o2)CC1.O=C(O)/C=C/C(=O)O.O=C(O)/C=C/C(=O)O` [Compound 5, 3-[(5-methyl-2-furanyl)methyl]-N-[1-(2-propenyl)-4-piperidinyl]-3H-imidazo-[4,5-b]pyridin-2-amine (E)-2-butenedioate(1:2)], 0.005 mg/kg; to `Cc1ccc(Cn2c(NC3CCN(C/C=C/c4ccccc4)CC3)nc3cccnc32)o1` [Compound 6], 0.04 mg/kg.

As for `CCOCCN1CCC(Nc2nc3cccnc3n2Cc2ccc(C)o2)CC1` [Compound 7], the ED50 was 0.02 mg/kg. As for `Cc1ccc(Cn2c(NC3CCN(CCCOc4ccccc4)CC3)nc3cccnc32)o1` [Compound 8], the ED50 was found to be 0.04 mg/kg.

Take `Cc1ccc(Cn2c(NC3CCN(CCn4c(=O)[nH]c5ccccc54)CC3)nc3cccnc32)o1` [Compound 9]: the ED50 is 0.02 mg/kg. Take `CCn1nnn(CCN2CCC(Nc3nc4cccnc4n3Cc3ccc(C)o3)CC2)c1=O` [Compound 10]: the ED50 was determined as 0.04 mg/kg. For the compound `CCN1CCC(Nc2nc3ccccc3n2Cc2ccc(C)o2)CC1` [Compound 11], the ED50 was 0.01 mg/kg. To `COc1ccc(CCN2CCC(Nc3nc4ccccc4n3Cc3ccc(C)o3)CC2)cc1` [Compound 13] belongs 0.04 mg/kg; to `Cc1ccc(Cn2c(NC3CCN(CCc4cccs4)CC3)nc3cccnc32)o1` [Compound 15], 0.04 mg/kg; to `CC(=O)CCCN1CCC(Nc2nc3cccnc3n2Cc2ccc(C)o2)CC1` [Compound 18], 0.01 mg/kg. To `CCn1nnn(CCN2CCC(Nc3nc4ccccc4n3Cc3ccc(C)o3)CC2)c1=O.O=C(O)C(=O)O.O=C(O)C(=O)O` [Compound 22, 1-ethyl-1,4-dihydro-4-[2-[4-[[1-[(5-methyl-2-furanyl)methyl]-1H-benzimidazol-2-yl]-amino]-1-piperidinyl]ethyl]-5H-tetrazol-5-one ethanedioate(1:2)] belongs 0.04 mg/kg; to `Cc1ccc(Cn2c(NC3CCN(CC(O)COc4ccccc4)CC3)nc3cccnc32)o1` (stereo not shown) [Compound 26], 0.04 mg/kg; to `CCc1ccc(Cn2c(NC3CCN(C)CC3)nc3cccnc32)o1` [Compound 29], 0.04 mg/kg.

Turning to `Cc1occc1Cn1c(NC2CCN(C)CC2)nc2cccnc21` [Compound 36], the ED50 was found to be 0.04 mg/kg. To `CCCCN1CCC(Nc2nc3cccnc3n2Cc2ccc(C)o2)CC1` [Compound 37] belongs 0.02 mg/kg; to `Cc1ccc(Cn2c(NC3CCN(CCCn4c(=O)[nH]c5ccccc54)CC3)nc3cccnc32)o1` [Compound 38], 0.02 mg/kg. To `CCCCCCN1CCC(Nc2nc3cccnc3n2Cc2ccc(C)o2)CC1` [Compound 39] belongs 0.04 mg/kg; to `CNC(=O)NCCN1CCC(Nc2nc3ccccc3n2Cc2ccc(C)o2)CC1` [Compound 40, N-methyl-N'-[2-[4-[[1-[(5-methyl-2-furanyl)methyl]-1H-benzimidazol-2-yl]amino]-1-piperidinyl]ethyl]urea], 0.02 mg/kg. To `CC(=O)CCN1CCC(Nc2nc3cccnc3n2Cc2ccc(C)o2)CC1` [Compound 41] belongs 0.01 mg/kg; to `CCCCCN1CCC(Nc2nc3cccnc3n2Cc2ccc(C)o2)CC1` [Compound 42], 0.04 mg/kg.

As for `Cc1ccc(Cn2c(NC3CCN(CCCC(=O)c4ccc(F)cc4)CC3)nc3cccnc32)o1` [Compound 46], the ED50 worked out at 0.04 mg/kg. To `Cc1occc1Cn1c(NC2CCN(CCn3c(=O)[nH]c4ccccc43)CC2)nc2cccnc21` [Compound 53] belongs 0.04 mg/kg; to `Cc1ccoc1Cn1c(NC2CCN(C)CC2)nc2cccnc21` [Compound 56], 0.04 mg/kg; to `Cc1coc(Cn2c(NC3CCN(C)CC3)nc3cccnc32)c1` [Compound 62], 0.005 mg/kg.

For `Cc1coc(Cn2c(NC3CCN(CCn4c(=O)[nH]c5ccccc54)CC3)nc3cccnc32)c1` [Compound 63], the ED50 was 0.04 mg/kg. To `COc1ccc(CCN2CCC(Nc3nc4cccnc4n3Cc3cc(C)co3)CC2)cc1` [Compound 64] belongs 0.04 mg/kg.
